Laboratory results: patent publication US20080145903A1, “PROCESSES OF PRODUCING FERMENTATION PRODUCTS” (priority 2006, published 2008)

Legend:
RED STAR yeast [1] = assay: Conventional simultaneous saccharification fermentation (SSF) of liquefied corn mash, ethanol yield by weight loss and HPLC; format: cell-based; conditions: weight loss method, all the enzymes tested, FIGS. 1, 2 and 3
Description: Liquefied corn mash was used to evaluate the effect of adding salicylic acid (SA) to a known enzyme dosage of
The performance of these enzymes was compared to controls without salicylic acid addition. The experimental set-up used is described in table below.
5.5 g of RED STAR™ yeast was rehydrated in 100 mL distilled water and incubated at 32° C. for 30 minutes prior to the beginning of fermentation. Approximately 50 million cells/g DS of yeast were added to each of the fermentations.
The corn mash was thawed to room temperature. Urea and Penicillin were added to a final concentration of […] and 3 mg/L respectively. Small-scale (˜4 g) fermentations were carried out in 15 mL polypropylene tubes with five replicates for each experimental condition. The tubes were prepared by drilling a 1/32 inch (1.5 mm) hole and the empty tubes were then weighed before liquefied corn mash was added. The tubes were weighed again after mash was added to determine the exact weight of mash in each tube. This weight was used to calculate the enzyme dosage necessary as follows:
Enzyme was added according to dosage described in table above and 100 μl of rehydrated yeast were added to each tube to begin fermentation. Fermentation progress was followed by weighing the tubes over time for approximately 70 hours. Tubes were vortexed briefly before each weighing. […]

yeast [2] = assay: One-step fermentation of ground corn slurry with T. cingulata GA + R. pusillus AA blend, ethanol by HPLC; format: cell-based; conditions: for Ethanol yield: one-step fermentation
Description: All treatments were evaluated via mini-scale fermentations. 410 g of ground yellow dent corn (with an average particle size around 0.5 mm) was added to 590 g tap water. This mixture was supplemented with 3.0 mL 1 g/L penicillin and 1 g of urea. The pH of this slurry was adjusted to 4.5 with 40% H2SO4. Dry solid (DS) level was determined to be 35 wt. %. Approximately 5 g of this slurry was added to 20 mL vials. Each vial was dosed with the appropriate amount of enzyme dosage shown in Table 2 below followed by addition of 200 microL yeast propagate/5 g slurry. Actual enzyme dosages were based on the exact weight of corn slurry in each vial. Vials were incubated at 32° C. Nine replicate fermentations of each treatment were run. Three replicates were selected for 24 hours, 48 hours and 70 hours time point analysis. Vials were vortexed at 24, 48 and 70 hours and analyzed by HPLC. The HPLC preparation consisted of stopping the reaction by addition of 50 microL of 40% H2SO4, centrifuging, and filtering through a 0.45 micrometer filter. Samples were stored at 4 C until analysis. Agilent™ 1100 HPLC system coupled with RI detector was used to determine ethanol and oligosaccharides concentration. The separation column was aminex HPX-87H ion exclusion column (300 mm×7.8 mm) from BioRad™).
The experiment was carried out as described in Example 2, except that salicylic acid (SA) was replaced with acetyl salicylic acid (ASA). The treatment and enzyme dosing was described in table below.

RED STAR yeast [3] = assay: Dose/response study of salicylic acid in conventional SSF; format: cell-based
Description: The experiment was carried out as described in Example 1, except that the following enzyme blends was used for all treatments: • 0.3 AGU Talaromyces emersonii glucoamylase/g DS; • 0.0025 mg Rhizomucor pusillus alpha-amylase/g DS; and • 0.0125 mg Trametes cingulata glucoamylase/g DS. All treatments and controls included 8 replicates. [table]

yeast [4] = assay: Yield boosting effect of salicylic acid on ethanol production from starch-containing material (conventional SSF), summary findings; format: cell-based
Source text: Further, the effect on yeast growth is 2-fold.

[5] = test system: Pichia stipitis (CBS6054); conditions: salicylic acid 5 mM, 30° C., pH 6, FIG. 9

## O=C(O)c1ccccc1O [SA, salicylic acid]
RED STAR yeast [1]
  Fermentation kinetic and final ethanol yield: increases the fermentation kinetic and also final ethanol yield
Yeast [2]; SA 1 mM (mM/g DS), 24 hours
  Ethanol yield: 107.77
Yeast [2]; SA 1 mM (mM/g DS), 48 hours
  Ethanol yield: 144.61
Yeast [2]; SA 1 mM (mM/g DS), 70 hours
  Ethanol yield: 151.80
Yeast [2]; SA 2.5 mM (mM/g DS), 24 hours
  Ethanol yield: 107.53
Yeast [2]; SA 2.5 mM (mM/g DS), 48 hours
  Ethanol yield: 143.11
Yeast [2]; SA 2.5 mM (mM/g DS), 70 hours
  Ethanol yield: 150.80
Yeast [2]; SA 5 mM (mM/g DS), 24 hours
  Ethanol yield: 104.46
Yeast [2]; SA 5 mM (mM/g DS), 48 hours
  Ethanol yield: 137.21
Yeast [2]; SA 5 mM (mM/g DS), 70 hours
  Ethanol yield: 146.07
Yeast [2]; SA 15 mM (mM/g DS), 24 hours
  Ethanol yield: 75.03
Yeast [2]; SA 15 mM (mM/g DS), 48 hours
  Ethanol yield: 117.40
Yeast [2]; SA 15 mM (mM/g DS), 70 hours
  Ethanol yield: 126.40
Yeast [2]; Trametes cingulata GA and Rhizomucor pusillus AA blend, FIG. 4
  Fermentation speed and final ethanol yield: increases the fermentation speed and final ethanol yield
RED STAR yeast [3]; HPLC, as a function of SA dose, FIG. 8
  Glycerol after 70 hours of fermentation: consistently reduced the amount of the by-product glycerol
RED STAR yeast [3]; weight loss data, FIG. 6
  Fermentation kinetics and final ethanol yield: increased the fermentation kinetics and final ethanol yield
Yeast [4]; at high salicylic acid concentrations
  Residual glucose: increased
Yeast [4]; at higher concentrations
  Effect on yeast growth: reduce yeast growth
Yeast [4]; at lower concentration
  Effect on cell growth: positive effect on cell growth
Yeast [4]; by HPLC
  Effective concentration range: 1.25 to 2.5 mM
  Maximum ethanol increase: 1.3%
Yeast [4]; by weight loss determination
  Effective concentration range: 0.63 to 2.5 mM
  Maximum ethanol increase: 3.5%
Yeast [4]; with increasing salicylic acid concentration
  Glycerol production: decreased dramatically
[5]
  Ability of P. stipitis to tolerate the inhibitors in the unwashed biomass hydrolyzate: improves the ability of P. stipitis to tolerate the inhibitors

## CC(=O)Oc1ccccc1C(=O)O [ASA, acetyl salicylic acid, reference compound]
Yeast [2]; ASA 1 mM (mM/g DS), 24 hours
  Ethanol yield: 108.19
Yeast [2]; ASA 1 mM (mM/g DS), 48 hours
  Ethanol yield: 153.37
Yeast [2]; ASA 1 mM (mM/g DS), 70 hours
  Ethanol yield: 160.39
Yeast [2]; ASA 1.0 mM/g DS, FIG. 5
  Fermentation kinetic and final ethanol yield: gave an increase in fermentation kinetic and also final ethanol yield
